Measurements reported in ChEMBL document CHEMBL5052824, “Novel sesquiterpenoid analogs” (2020).
Active and inactive are the calls of the source. No cut-off for these calls is given here.

How the values were obtained:
[1] = system: MDA-MB-231; experiment: Binding affinity to cysteine residue of protein in human MDA-MB-231 lysates at 30 uM incubated for 1 hr and measured in presence of cysteine-reactive reagent JW-RF-001 by SDS-PAGE analysis; assay type: subcellular
[2] = system: MDA-MB-231; experiment: Binding affinity to cysteine residues of protein in human MDA-MB-231 lysates at 30 uM incubated for 1 hr and measured by SDS-PAGE analysis; assay type: subcellular
[3] = system: HeLa; experiment: Induction of DNA damage in human HeLa cells at 30 uM assessed as increase in gamma-H2AX level in presence of 30 uM etoposide and measured by DAPI staining method relative to control; assay type: functional, cell-based
[4] = molecular target: T1, DNA polymerase epsilon subunit 3 (Homo sapiens) (UniProt Q9NRF9); experiment: Binding affinity towards wild-type POLE3 overexpressed in human 293T cells measured after 1 hr by SDS-PAGE analysis; assay type: cell-based; details: HEK293T
T1 sequence (whole entry): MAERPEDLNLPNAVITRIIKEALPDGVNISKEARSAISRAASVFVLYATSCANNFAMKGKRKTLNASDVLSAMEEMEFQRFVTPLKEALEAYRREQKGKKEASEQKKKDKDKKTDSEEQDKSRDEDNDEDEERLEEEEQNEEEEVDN

[5] = system: HeLa; experiment: Downregulation of PEA15 expression in POLE3 knocked down human HeLa cells and measured after 6 hrs; assay type: functional, cell-based
[6] = system: HeLa; experiment: Downregulation of GEMIN2 expression in POLE3 knocked down human HeLa cells and measured after 6 hrs; assay type: functional, cell-based
[7] = system: HeLa; experiment: Induction of DNA damage in POLE3 knocked down human HeLa cells at 30 uM assessed as increase in gamma-H2AX level in presence of 30 uM etoposide and measured by DAPI staining method relative to control; assay type: functional, cell-based
[8] = Upregulation of POLE expression in POLE3 knocked down human HeLa cells and measured as fold change after 6 hrs; assay type: functional
[9] = system: HeLa; experiment: Downregulation of DNA ligase 3 expression in POLE3 knocked down human HeLa cells and measured after 6 hrs; assay type: functional, cell-based
[10] = system: HeLa; experiment: Induction of DNA damage in human HeLa cells at 30 uM assessed as increase in gamma-H2AX level and measured by DAPI staining method relative to control; assay type: functional, cell-based
[11] = system: HeLa; experiment: Downregulation of GIT2 expression in POLE3 knocked down human HeLa cells and measured after 6 hrs; assay type: functional, cell-based

| SMILES | Activity [1] | Activity [2] | Activity [3] | Kinact [4] | Activity [5] | Activity [6] | Activity [7] | fold change (FC) [8] | Activity [9] | Activity [10] | Activity [11] |
| --- | --- | --- | --- | --- | --- | --- | --- | --- | --- | --- | --- |
| C=C1C[C@@]2(C[C@H](C)[C@H]3CC=C(CN=[N+]=[N-])C(=O)[C@@H]3O2)OC1=O | inactive | Active |  |  |  |  |  |  |  |  |  |
| C=C1C[C@@]2(C[C@H](C)[C@H]3CC=C(C)C(=O)[C@@H]3O2)OC1=O |  |  | Active | 0.27 min⁻¹ | Active | Active | Active | 4 | Active | inactive | Active |
| COc1cc([C@@H]2c3cc4c(cc3[C@@H](O[C@@H]3O[C@@H]5CO[C@@H](C)O[C@H]5[C@H](O)[C@H]3O)[C@H]3COC(=O)[C@H]23)OCO4)cc(OC)c1O |  |  |  |  |  |  |  |  |  | Active |  |
